Laboratory results taken from US12637658B2, “Method for gene transfer into gamma-delta type T cell” (Mie University, priority 2018, dated 2026).

Columns and labels:
γδT cells [1] = assay: Proliferation of γδT cells from peripheral blood monocytes with compound 7, IL-7 and IL-15; assay type: cell-based, human; conditions: for ratio of the γδT cells: Day 11
Description: The monocytes were prepared from peripheral blood of two healthy subjects by Ficoll. Personal agreement for the blood collection was achieved based on the research ethics code of the medical school of Mie University. The monocytes adjusted to 1.5×10^6 cells/mL with the culture solution of Yssel containing 10% human AB serum were cultured for one day in the presence of tetrakispivaloyloxymethyl 2-(thiazole-2-ylamino) ethylidene-1,1-bisphosphonate (compound 7, 1 μM), and then added with 25 ng/mL of IL-7 (Miltenyi Biotec, catalog number: 170-076-111) and 25 ng/mL of IL-15 (Miltenyi Biotec, catalog number: 170-076-114), and further cultured for 10 days. The frequency of the γδT cells in the monocyte population were analyzed by flow cytometry (FACSCANTO II, Becton Dickinson). As a result, the ratio of the γδT cells at the start of culture (Day 0) was 2.7% for donor 1 (HD1) and 1.7% for donor 2 (HD2), respectively. […] Peripheral blood of healthy human normally contains 1 to 3% of the γδT cells. However, approximately 1×10^8 of γδT cell populations could be prepared in high-purity from 1.5 mL of peripheral blood.
A culture solution of Yssel containing 10% human AB serum was used as the culture solution. As a result, rapid cell proliferation was observed from about Day 8 after the culture. The number of cells on Day 13 was 3×10^8, which was about 5000 times (FIG. 1B).
As comparison, IL-7 and IL-15 in the culture solution were replaced by IL-2 (PROLEUKIN, Chiron Therapeutics), and monocytes were cultured.

γδT cells [2] = assay: Comparison of compound 7 with zoledronate: proliferation and purity of γδT cells (IL-2 culture); assay type: cell-based, human; conditions: for effect on cell proliferation: Day 8, IL-2 300 U/mL
Description: Peripheral blood monocytes were collected from healthy subjects (n=8, HD1 to HD8) in two experiments (n=4 in each experiment). On Day 0, 1.5×10^6 of the collected peripheral blood monocytes were added to each well of 24-well plate. […] Then, on Day 1, IL-2 (300 U/mL) was added. The IL-2 is a cytokine used for the proliferation of the γδT cells according to the reports (non-patent documents 5 and 6). On Day 6, the cells of one well were diluted 2-fold into two wells. The number of cells was counted. On Day 7, the cells of two wells were diluted 2-fold into four wells, and IL-2 (300 U/mL) was further added. On Day 8, half-volume (about 3 mL) of the cells were diluted 6-fold to 18 mL, and cultured in a T75 flask. On Day 8 and Day 11, the number of cells was counted and cell purity was measured by flow cytometry analysis.

[3] = compound 7 1 μM, IL-7 and IL-15 25 ng/mL
[4] = compound 7 1 μM vs zoledronate 5 μM

“IL-2: interleukin-2 (PROLEUKIN, Chiron Therapeutics), cytokine used for proliferation of γδT cells” was tested. Which “effect of promoting cell proliferation by IL-7 and IL-15 on further addition of IL-2” value (γδT cells [1]; monocytes stimulated with compound 7) did it give?
Its value is “not further increased”.

Which results are given for `CC(C)(C)C(=O)OCOP(=O)(OCOC(=O)C(C)(C)C)C(CNc1nccs1)P(=O)(OCOC(=O)C(C)(C)C)OCOC(=O)C(C)(C)C` [compound 7, tetrakispivaloyloxymethyl 2-(thiazole-2-ylamino)ethylidene-1,1-bisphosphonate]?
start of rapid cell proliferation (γδT cells [1]; [3]): ~8 days; γδT cell populations prepared in high-purity from 1.5 mL of peripheral blood (γδT cells [1]; [3]): approximately 1×10^8; ratio of the γδT cells (γδT cells [1]; donor 1 (HD1), compound 7 1 μM, IL-7 and IL-15 25 ng/mL, 2.7% at Day 0): 97.1%; ratio of the γδT cells (γδT cells [1]; donor 2 (HD2), compound 7 1 μM, IL-7 and IL-15 25 ng/mL, 1.7% at Day 0): 94.5%; number of cells on Day 13 (γδT cells [1]; from 3×10^6 monocytes (3 mL peripheral blood), compound 7 1 μM, IL-7 and IL-15 25 ng/mL): 3×10^8; fold increase of cells on Day 13 (γδT cells [1]; from 3×10^6 monocytes, compound 7 1 μM, IL-7 and IL-15 25 ng/mL): about 5000 times; effect on cell proliferation (γδT cells [2]; [4]): almost no difference; frequency of the γδT cells in lymphocyte fraction (P1) (Vd2/P1) (γδT cells [2]; Day 8 and Day 11, compared to the zoledronate treatment group, t test): significantly higher; cell proliferation-stimulating effect compared to zoledronate (γδT cells [2]; Day 11, Experiment 1, subjects HD1 to HD4, compound 7 1 μM vs zoledronate 5 μM): strongly recognized; cell proliferation-stimulating effect compared to zoledronate (γδT cells [2]; Day 11, Experiment 2, subject): the same level; cell proliferation-stimulating effect compared to zoledronate (γδT cells [2]; Day 11, Experiment 2, subject HD8): weak; cell proliferation-stimulating effect compared to zoledronate (γδT cells [2]; Day 11, Experiment 2, subjects HD6 and HD7): greater; proliferation of γδT cells compared to zoledronate, average (γδT cells [2]; Day 11, Experiments 1 and 2, n=8, p=0.008, t test): significantly excellent; frequency of the γδT cells in CD3 positive cells (Vd2/CD3) (γδT cells [2]; compared to the zoledronate treatment group, t test): significantly higher

For `O=P(O)(O)C(O)(Cn1ccnc1)P(=O)(O)O` [zoledronate, reference compound], which “effect on cell proliferation” value (γδT cells [2]; [4]) is on record?
Its value is “almost no difference”.
